The results in this text go back to patent US20240124504A1, “AROMATIC HETEROCYCLIC COMPOUND, AND PHARMACEUTICAL COMPOSITION AND APPLICATION THEREOF” (GT APEIRON THERAPEUTICS LIMITED, priority 2020, published 2024).

One assay deals with CDK2/cyclinE1 complex (Homo sapiens, UniProt P24941). In words: In-vitro enzymatic inhibitory activity testing, CDK2 inhibition assay (Caliper EZ Reader II). In kind it is biochemical. As to conditions: CDK2/cyclinE1 0.5 nM, 180 min at 27° C. The essentials: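 CDK2/cyclinE1 (0.5 nM) phosphorylated 5-FAM-CDK7tide (2 μM) in MES buffer pH 6.5 with MgCl2, Tween 20 and BSA. Substrate and product were separated electrophoretically on a Caliper EZ Reader II. IC50 values came from nonlinear dose-response fits.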

Assay [1] addresses T1, CDK12 (aa686-1082)/cyclinK complex (Homo sapiens, UniProt Q9NYV4).
T1 construct: A CDK12 (aa686-1082)/cyclinK complex (50 nM)
In words: In-vitro enzymatic inhibitory activity testing, CDK12 inhibition assay (Caliper EZ Reader II). Format: biochemical. As to conditions: CDK12/cyclinK 50 nM, 180 min at 27° C.; read-out: CDK12 IC50. In a few lines: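 CDK12 (aa686-1082)/cyclinK complex at 50 nM was pre-incubated with compound for 10 min, then reacted 180 min at 27° C with ATP and 2 μM 5-FAM-CDK9tide in pH 6.5 MES buffer with 10 mM MgCl2. Reactions were EDTA-quenched and product resolved electrophoretically; IC50 from nonlinear curve fit.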

The test system of another assay is ovarian cancer A2780. In words: Cell biological activity detection (CyQuant, 72 hours), A2780. In kind it is cell-based, human. As to conditions: A2780 cells, incubation for 72 hours. The essentials:
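IC50 derived from CyQuant Direct nuclear staining (488 nm excitation) after 72 h compound exposure at 37 °C, 5% CO2. Compounds tested in 9 concentrations from 10 μM, 1:4 steps, 0.2% DMSO, on A2780 or HCC70 cells plated overnight at 2000/well in RPMI 1640 + 10% FBS.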

T1 sequence (Q9NYV4 686-1082, species assumed): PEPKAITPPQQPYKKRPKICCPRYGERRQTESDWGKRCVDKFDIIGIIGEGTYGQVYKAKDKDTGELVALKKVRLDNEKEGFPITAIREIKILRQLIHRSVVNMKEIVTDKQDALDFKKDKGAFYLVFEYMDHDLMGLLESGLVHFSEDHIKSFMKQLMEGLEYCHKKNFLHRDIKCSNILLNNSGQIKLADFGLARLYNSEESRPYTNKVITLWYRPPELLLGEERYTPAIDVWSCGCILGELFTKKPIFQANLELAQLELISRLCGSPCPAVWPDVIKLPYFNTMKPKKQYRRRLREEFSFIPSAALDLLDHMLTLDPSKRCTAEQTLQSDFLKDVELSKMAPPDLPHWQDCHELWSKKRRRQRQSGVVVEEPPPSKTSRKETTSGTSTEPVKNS
T1 sequence (O75909 whole entry partner, species assumed, the tested form may be a part): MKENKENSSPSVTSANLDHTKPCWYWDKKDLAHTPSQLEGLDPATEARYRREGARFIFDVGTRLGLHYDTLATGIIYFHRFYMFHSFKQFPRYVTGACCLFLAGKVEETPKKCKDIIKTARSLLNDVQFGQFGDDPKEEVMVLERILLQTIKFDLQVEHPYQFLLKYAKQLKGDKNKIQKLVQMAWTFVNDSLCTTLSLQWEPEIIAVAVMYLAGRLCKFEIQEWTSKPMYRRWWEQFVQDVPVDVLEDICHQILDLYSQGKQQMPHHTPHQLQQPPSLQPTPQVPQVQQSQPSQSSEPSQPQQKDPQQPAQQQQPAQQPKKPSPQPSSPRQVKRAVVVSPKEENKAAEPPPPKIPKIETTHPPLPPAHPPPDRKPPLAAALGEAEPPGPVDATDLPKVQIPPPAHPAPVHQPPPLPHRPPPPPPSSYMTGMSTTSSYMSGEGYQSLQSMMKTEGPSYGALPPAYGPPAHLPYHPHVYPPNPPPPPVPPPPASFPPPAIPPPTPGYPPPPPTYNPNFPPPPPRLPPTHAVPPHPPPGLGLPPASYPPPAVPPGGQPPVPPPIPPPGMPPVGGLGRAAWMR

For `CP(C)(=O)c1cccc2c(-c3nc(NCC4CC(O)C4)ncc3C(F)(F)F)c[nH]c12` (stereo not drawn) [Compound 126, (3-(2-(((3-hydroxycyclobutyl)methyl)amino)-5-(trifluoromethyl)pyrimidin-4-yl)-1H-indole-7-yl)dimethylphosphine oxide], the 50% inhibitory concentration (IC50) on CDK2/cyclinE1 complex is 0.2 to 5 µM; in assay [1] it was more than 50 µM; in the assay on ovarian cancer A2780 (Homo sapiens, A2780, 72 h) it was 0.02 to 0.2 µM.
In the same order, the values of `CP(C)(=O)c1cccc2c(-c3nc(N[C@@H]4CCC[C@H]4O)ncc3C(F)(F)F)c[nH]c12` [Compound 156] are 5 to 50 µM, 5 to 50 µM and 0.02 to 0.2 µM.
Consider `CN(C)[C@H]1CC[C@H](Nc2ncc(C(F)(F)F)c(-c3c[nH]c4c(P(C)(C)=O)cccc34)n2)C1` [Compound 137, (3-(2-(((1S,3S)-3-(dimethylamino)cyclopentyl)amino)-5-(trifluoromethyl)pyrimidin-4-yl)-1H-indole-7-yl)dimethylphosphine oxide], for which the concentration for half-maximal inhibition (IC50) at CDK2/cyclinE1 complex was 0.2 to 5 µM; in assay [1] it was 0.2 to 5 µM; in the assay with ovarian cancer A2780 (Homo sapiens, A2780, 72 h), less than 0.02 µM.
`CP(C)(=O)c1cccc2c(-c3nc(NC[C@H]4C[C@](C)(O)C4)ncc3C(F)(F)F)c[nH]c12` [Compound 127, (3-(2-(((trans-3-hydroxy-3-methylcyclobutyl)methyl)amino)-5-(trifluoromethyl)pyrimidin-4-yl)-1H-indole-7-yl)dimethylphosphine oxide]: the IC50 at CDK2/cyclinE1 complex is 0.2 to 5 µM; in assay [1] it was more than 50 µM; with ovarian cancer A2780 (Homo sapiens, A2780, 72 h), less than 0.02 µM.
As to `CP(C)(=O)c1cccc2c(-c3nc(NCC4CC4CO)ncc3C(F)(F)F)c[nH]c12` (single isomer, unassigned) [Compound 144], the IC50 at CDK2/cyclinE1 complex was 5 to 50 µM; in assay [1], more than 50 µM; in the assay with ovarian cancer A2780 it was 0.02 to 0.2 µM.
For the compound `CP(C)(=O)c1cccc2c(-c3nc(NC45CC(O)(C4)C5)ncc3C(F)(F)F)c[nH]c12` [Compound 174, (3-(2-((3-hydroxybicyclo[1.1.1]pentan-1-yl)amino)-5-(trifluoromethyl)pyrimidin-4-yl)-1H-indole-7-yl)dimethylphosphine oxide], the concentration for half-maximal inhibition (IC50) is 0.2 to 5 µM on CDK2/cyclinE1 complex; 0.2 to 5 µM in assay [1]; less than 0.02 µM with ovarian cancer A2780 (Homo sapiens, A2780, 72 h).
`CC(O)[C@H](C)Nc1ncc(C(F)(F)F)c(-c2c[nH]c3c(P(C)(C)=O)cccc23)n1` (single isomer, unassigned) [Compound 129]: the IC50 against CDK2/cyclinE1 complex is 5 to 50 µM; in assay [1] it was more than 50 µM; in the assay on ovarian cancer A2780 (Homo sapiens, A2780, 72 h), 0.02 to 0.2 µM.
In the same order, the values of `CC(C)(CO)Nc1ncc(C(F)(F)F)c(-c2c[nH]c3c(P(C)(C)=O)cccc23)n1` [Compound 85, (3-(2-((1-hydroxy-2-methylpropan-2-yl)amino)-5-(trifluoromethyl)pyrimidin-4-yl)-1H-indole-7-yl)dimethylphosphine oxide] are 5 to 50 µM, more than 50 µM and less than 0.02 µM.
`CP(C)(=O)c1cccc2c(-c3nc(NC4(CO)CCC4)ncc3C(F)(F)F)c[nH]c12` [Compound 168, (3-(2-((1-(hydroxymethyl)cyclobutyl)amino)-5-(trifluoromethyl)pyrimidin-4-yl)-1H-indole-7-yl)dimethylphosphine oxide]: the IC50 against CDK2/cyclinE1 complex is 5 to 50 µM; in assay [1], more than 50 µM; in the assay with ovarian cancer A2780 (Homo sapiens, A2780, 72 h), 0.02 to 0.2 µM.
On to `CP(C)(=O)c1cccc2c(-c3nc(N[C@@H]4CC[C@H]4O)ncc3C(F)(F)F)c[nH]c12` [Compound 153, (3-(2-(((1R,2R)-2-hydroxycyclobutyl)amino)-5-(trifluoromethyl)pyrimidin-4-yl)-1hydro-indole-7-yl)dimethylphosphine oxide], for which the IC50 on CDK2/cyclinE1 complex was 0.2 to 5 µM; in assay [1], more than 50 µM; in the assay on ovarian cancer A2780 (Homo sapiens, A2780, 72 h) it was 0.02 to 0.2 µM.
The matching figures for `CP(C)(=O)c1cccc2c(-c3nc(N[C@H]4CC[C@@H]4O)ncc3C(F)(F)F)c[nH]c12` [Compound 154, (3-(2-(((1S,2S)-2-hydroxycyclobutyl)amino)-5-(trifluoromethyl)pyrimidin-4-yl)-1hydro-indole-7-yl)dimethylphosphine oxide]: 0.2 to 5 µM, 5 to 50 µM and less than 0.02 µM.

As a reminder, the IC50 is the concentration that inhibits the measured activity by half.
